Measured values reported in patent US20250092065A1, “2-(INDAZOL-5-YL)-6-(PIPERIDIN-4-YL)-1,7-NAPHTHYRIDINE DERIVATIVES AND RELATED COMPOUNDS AS MODULATORS FOR SPLICING NUCLEIC ACIDS AND FOR THE TREATMENT OF PROLIFERATIVE DISEASES” (REMIX THERAPEUTICS INC., priority 2022, published 2025).
Like-named read-outs stand apart in the source and are kept apart here.

Key:
[1] = system: HTT mRNA; assay: RT-qPCR splicing assay, HTT mRNA canonical (CJ) and alternative (AJ) junction; assay type: cell-based, human; conditions: Homo sapiens; for AC50: HTT alternative junction mRNA, read-out: HTT AJ (increase in AJ mRNA, AC50)
In short: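 Junction-specific RT-qPCR read-out: CJ and AJ isoform levels, housekeeper-normalized (GAPDH/GUSB/PPIA), ΔΔCt vs DMSO, converted to RQ then % response. Cells: A673 (DMEM/10% FBS, adhered 24 h) or K562 (IMDM/10% FBS). Compound 11-pt 3-fold, top 10 uM, 24 h, 37 °C.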

[2] = system: MYB; assay: HiBiT protein abundance assay, MYB (K562 HiBiT knock-in); assay type: cell-based, human; conditions: HiBiT knock-in K562 cells, 24 hours, top dose 10 μM
In short: (§1)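 Endogenously HiBiT-tagged K562 lines were treated for 24 h at 37 °C with 10-point 3-fold dilutions (top 10 μM final, DMSO ≤0.25%). Lytic LgBiT complementation luminescence was normalized between unmodified K562 (PC) and DMSO-treated tagged cells (NC); IC50 was interpolated at 50% from a four-parameter logistic fit.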

[3] = system: HTT; assay: HiBiT protein abundance assay, HTT (K562 HiBiT knock-in); assay type: cell-based, human; conditions: HiBiT knock-in K562 cells, 24 hours, top dose 10 μM
In short: as §1

[4] = system: Target C; assay: HiBiT protein abundance assay, Target C (K562 HiBiT knock-in); assay type: cell-based, human; conditions: HiBiT knock-in K562 cells, 24 hours, top dose 10 μM
In short: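 K562 HiBiT knock-in cells (10000/well) were treated 24 h at 37° C with a 10-point 3-fold dilution series (top 10 μM final, ≤0.25% DMSO). HiBiT luminescence was read after lytic LgBiT detection. Percent response used unmodified K562 and DMSO-treated knock-in controls, and IC50 came from a four-parameter fit at 50% of untreated.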

[5] = system: K562 cells; assay: Cell Titer Glo 2.0 cell viability (toxicity) assay, K562; conditions: 500 cells/well, 72 hours
[6] = HTT canonical junction mRNA, RT-qPCR, read-out: HTT CJ (decrease in CJ mRNA levels, IC50)
[7] = canonical junction qPCR panel, Table 4, read-out: HTT IC50 (decrease in CJ mRNA levels)

| Structure (SMILES) | IC50 [1, 6] [nM] | IC50 [1, 7] [nM] | IC50 [2] [nM] | IC50 [3] [nM] | IC50 [4] [nM] | AC50 ([1]; RT-qPCR) [nM] | Effect of Exemplary Compounds on Cell Viability, K562 [5] |
| --- | --- | --- | --- | --- | --- | --- | --- |
| Cc1nc2c(F)c(O)c(-c3ccc4nc(N5CC[C@@H](N[C@H]6C[C@@H](F)C6)C5)ccc4n3)cc2o1 (stereo in doubt) [Compound 375] | < 100 | < 100 | < 100 | < 100 | < 100 | < 100 | A (A represents <100 nM) |
| Cc1nc2c(C)c(O)c(-c3ccc4nc(N5CC[C@@H](N[C@H]6C[C@@H](F)C6)C5)ccc4n3)cc2o1 (stereo in doubt) [Compound 376] | < 100 | < 100 | < 100 | < 100 | < 100 | 100 to 1000 | B (B represents 100-1000 nM) |
| Cc1nc2cc(O)c(-c3ccc4nc(N5CC[C@H](N[C@H]6C[C@@H](F)C6)C5)ccc4n3)cc2o1 (stereo in doubt) [Compound 396] | < 100 | < 100 | 100 to 1000 | < 100 | < 100 | < 100 | B (B represents 100-1000 nM) |
| Cn1cc2cc(-c3ccc4nc(N5CC[C@@H](NC6(CF)CC6)C5)ccc4n3)c(O)cc2n1 [Compound 354, 5-{6-[(3R)-3-{[1-(fluoromethyl)cyclopropyl]amino}pyrrolidin-1-yl]-1,5-naphthyridin-2-yl}-2-methylindazol-6-ol] | < 100 | < 100 | < 100 | < 100 | < 100 | < 100 | B (B represents 100-1000 nM) |
| Cc1c(O)c(-c2ncc3nc(C4CCNCC4)ccc3n2)cc2cn(C)nc12 [Compound 370, 2,7-dimethyl-5-[6-(piperidin-4-yl)pyrido[3,2-d]pyrimidin-2-yl]indazol-6-ol] | 100 to 1000 | 100 to 1000 | 100 to 1000 | 100 to 1000 | 100 to 1000 | 1000 to 10000 | C (C represents 1000-9999 nM) |
| Cc1nc2c(F)c(O)c(-c3ccc4nc(N5CC[C@H](N[C@H]6C[C@@H](F)C6)C5)ccc4n3)cc2o1 [Compound 374, 4-fluoro-2-methyl-6-[6-(3-{[(1r,3r)-3-fluorocyclobutyl]amino}pyrrolidin-1-yl)-1,5-naphthyridin-2-yl]-1,3-benzoxazol-5-ol] | < 100 | < 100 | < 100 | < 100 | < 100 | < 100 | A (A represents <100 nM) |
| CNC1CCN(c2ccc3nc(-c4cc(C#N)c5nc(C)cn5c4)ncc3n2)C1 (centres unmarked) [Compound 382, 2-methyl-6-{6-[3-(methylamino)pyrrolidin-1-yl]pyrido[3,2-d]pyrimidin-2-yl}imidazo[1,2-a]pyridine-8-carbonitrile] | 100 to 1000 | 100 to 1000 | < 100 | 100 to 1000 | 1000 to 10000 | 100 to 1000 | A (A represents <100 nM) |
| Cn1cc2cc(-c3ccc4nc(N5CCC(NCC6CC6)C5)ccc4n3)c(O)c(F)c2n1 (centres unmarked) [Compound 387, 5-(6-{3-[(cyclopropylmethyl)amino]pyrrolidin-1-yl}-1,5-naphthyridin-2-yl)-7-fluoro-2-methylindazol-6-ol] | < 100 | < 100 | < 100 | < 100 | < 100 | < 100 | A (A represents <100 nM) |
| CC(C)NC1CCN(c2ccc3nc(-c4cc5cn(C)nc5c(F)c4O)ccc3n2)C1 (centres unmarked) [Compound 388, 7-fluoro-5-{6-[3-(isopropylamino)pyrrolidin-1-yl]-1,5-naphthyridin-2-yl}-2-methylindazol-6-ol] | < 100 | < 100 | < 100 | < 100 | < 100 | < 100 | A (A represents <100 nM) |
| CNC1CCN(c2ccc3nc(-c4cc(F)c5nc(C)cn5c4)ncc3n2)C1 (centres unmarked) [Compound 393, 1-(2-{8-fluoro-2-methylimidazo[1,2-a]pyridin-6-yl}pyrido[3,2-d]pyrimidin-6-yl)-N-methylpyrrolidin-3-amine] | 100 to 1000 | 100 to 1000 | < 100 | 100 to 1000 | 100 to 1000 | 100 to 1000 | B (B represents 100-1000 nM) |

The next lines start with results.

| IC50 [1, 6] [nM] | IC50 [1, 7] [nM] | IC50 [2] [nM] | IC50 [3] [nM] | IC50 [4] [nM] | Structure (SMILES) | AC50 ([1]; RT-qPCR) [nM] | Effect of Exemplary Compounds on Cell Viability, K562 [5] |
| --- | --- | --- | --- | --- | --- | --- | --- |
| < 100 | < 100 | < 100 | < 100 | < 100 | Cn1cc2cc(-c3ccc4nc(N5CCC(N)C5)ccc4n3)c(O)c(F)c2n1 (stereo in doubt) [Compound 363, 5-{6-[(3R)-3-aminopyrrolidin-1-yl]-1,5-naphthyridin-2-yl}-7-fluoro-2-methylindazol-6-ol] | < 100 | A (A represents <100 nM) |
| < 100 | < 100 | < 100 | < 100 | < 100 | Cc1nc2c(C)c(O)c(-c3ccc4nc(N5CC[C@H](N[C@H]6C[C@@H](F)C6)C5)ccc4n3)cc2o1 (stereo in doubt) [Compound 377] | < 100 | B (B represents 100-1000 nM) |
| 100 to 1000 | 100 to 1000 | 100 to 1000 | 100 to 1000 | 100 to 1000 | Cc1nc2cc(O)c(-c3ccc4nc(N5CC[C@@H](N[C@H]6C[C@@H](F)C6)C5)ccc4n3)cc2o1 (stereo in doubt) [Compound 395] | 100 to 1000 | B (B represents 100-1000 nM) |
| < 100 | < 100 | < 100 | < 100 | < 100 | Cn1cc2cc(-c3ccc4nc(N5CC[C@H](NC6(CF)CC6)C5)ccc4n3)c(O)cc2n1 [Compound 355, 5-{6-[(3S)-3-{[1-(fluoromethyl)cyclopropyl]amino}pyrrolidin-1-yl]-1,5-naphthyridin-2-yl}-2-methylindazol-6-ol] | < 100 | B (B represents 100-1000 nM) |
| < 100 | < 100 | < 100 | < 100 | < 100 | Cc1c(O)c(-c2ccc3nc(N4CCC(NC5(CF)CC5)C4)ccc3n2)cc2cn(C)nc12 (centres unmarked) [Compound 360, 5-[6-(3-{[1-(fluoromethyl)cyclopropyl]amino}pyrrolidin-1-yl)-1,5-naphthyridin-2-yl]-2,7-dimethylindazol-6-ol] | < 100 | B (B represents 100-1000 nM) |
| > 10000 | > 10000 | 1000 to 10000 | > 10000 | 1000 to 10000 | Cc1c(O)c(-c2cc(C(C)O)c3nc(N4CCNCC4)ccc3n2)cc2cn(C)nc12 (centres unmarked) [Compound 364, 5-[4-(1-hydroxyethyl)-6-(piperazin-1-yl)-1,5-naphthyridin-2-yl]-2,7-dimethylindazol-6-ol] | > 10000 | B (B represents 100-1000 nM) |
| 1000 to 10000 | 1000 to 10000 | 1000 to 10000 | 1000 to 10000 | 1000 to 10000 | Cn1cc2cc(-c3ccc4nc(N5CC[C@H](NC6CC(F)(F)C6)C5)ccc4n3)c(O)cc2n1 [Compound 384] | 1000 to 10000 | D (D represents greater than 10 μM in K562 cells) |
| < 100 | < 100 | 100 to 1000 | < 100 | 100 to 1000 | Cn1cc2cc(-c3ccc4nc(N5CC[C@@H](NC6CC(F)(F)C6)C5)ccc4n3)c(O)cc2n1 [Compound 385] | 100 to 1000 | D (D represents greater than 10 μM in K562 cells) |
| < 100 | < 100 | < 100 | < 100 | < 100 | Cc1nc2cc(O)c(-c3ccc4nc(N5CCC(NCC6CC6)C5)ccc4n3)cc2o1 (centres unmarked) [Compound 389, 6-(6-{3-[(cyclopropylmethyl)amino]pyrrolidin-1-yl}-1,5-naphthyridin-2-yl)-2-methyl-1,3-benzoxazol-5-ol] | 100 to 1000 | B (B represents 100-1000 nM) |
| < 100 | < 100 | < 100 | < 100 | < 100 | Cc1nc2c(C)c(O)c(-c3ccc4nc(N5CCC(NCC6CC6)C5)ccc4n3)cc2o1 (centres unmarked) [Compound 390, 6-(6-{3-[(cyclopropylmethyl)amino]pyrrolidin-1-yl}-1,5-naphthyridin-2-yl)-2,4-dimethyl-1,3-benzoxazol-5-ol] | < 100 | A (A represents <100 nM) |
